B1: rshCD6: recombinant soluble form of human CD6, SEQ ID NO.: 10 (protein)
chain: DQLNTSSAESELWEPGERLPVRLTNGSSSCSGTVEVRLEASWEPACGALWDSRAAEAVCRALGCGGAEAASQLAPPTPELPPPPAAGNTSVAANATLAGAPALLCSGAEWRLCEVVEHACRSDGRRARVTCAENRALRLVDGGGACAGRVEMLEHGEWGSVCDDTWDLEDAHVVCRQLGCGWAVQALPGLHFTPGRGPIHRDQVNCSGAEAYLWDCPGLPGQHYCGHKEDAGAVCSEHQSWRLTGGADRCEGQVEVHFRGVWNTVCDSEWYPSEAKVLCQSLGCGTAVERPKGLPHSLSGRMYYSCNGEELTLSNCSWRFNNSNLCSQSLAARVLCSASRSLHNLSTPEVPASVQTVTIESSVTVKIENKESR
modifications: rshCD6

What was measured:
[1] = Solid phase binding assay (ELISA) of biotin-labeled peptides to immobilized LPS; design: species or system E. coli; conditions: biotin-labeled peptide 5-20 μg/mL; LPS 5 μg/mL coated
Method: (§1) FIG. 3. Binding of biotin-labeled CD6-derived peptides to immobilized PAMPs from Gram- and Gram+ origin. Increasing concentrations (5-20 μg/mL) of biotin-labeled CD6- (PD1, PD2, PD3 and cons), DMBT1- (pbs1), and CD5- (PD1) derived peptides were added to 96-well ELISA plates sensitized with E. coli 0111:B4 LPS (A) or S. aureus LTA (B) (5 μg/mL each in PBS). Following overnight incubation at 4° C. bound peptides or proteins were developed by addition of horseradish peroxidase (HRP)-labeled streptavidin and 3,3′,5,5′-tetramethylbenzidine (TMB) substrate and further readings at OD 405-620 nm. Results are expressed as mean±SD of duplicates from one representative experiment of three performed. Statistical analysis was performed by two-way ANOVA (*,P<0.05; **, P<0.01; ***, P<0.001).
(§2) Solid Phase Binding Assays. 96-well microtiter plates (Nunc, Roskilde, Denmark) were coated overnight at 4° C. with 5 μg/mL of purified LPS (E. coli 0111:B4, Sigma L2630) or LTA (S. aureus, Sigma L2515) in PBS, and then incubated for 2 h at room temperature in blocking solution (20 mM Tris-HCl pH 7.4 plus 0.05% Tween 20 and 1% BSA). Biotin-labeled peptides/proteins (2.5-20 μg/mL) were added and incubated overnight at 4° C. in blocking solution. After extensive washing, bound peptides/proteins were detected by the addition of horseradish peroxidase (HRP)-labeled streptavidin (1:5,000 dilution; DAKO) for 1 h at room temperature. Color was developed by adding 3,3′,5,5′-tetramethylbenzidine (TMB) liquid substrate (Sigma), and optical density read at 405-620 nm.

[2] = Solid phase binding assay (ELISA) of biotin-labeled peptides to immobilized LTA; design: species or system S. aureus; conditions: biotin-labeled peptide 5-20 μg/mL; LTA 5 μg/mL coated
Method: as §1, §2

[3] = Dynamic light scattering (DLS), hydrodynamic size of peptides in solution; format: physicochemical; conditions: 10 μg/mL in PBS, 25° C.
Method: FIG. 5. Analysis of the hydrodynamic size of CD6-derived peptides in solution. The dynamic light scattering (DLS) analysis of the hydrodynamic diameter of CD6 (PD1, PD2, PD3, and Pcons) and DMBT-1/SAG (pbs1) derived peptides (10 μg/mL) in PBS is shown. The y axis represents the relative intensity of the scattered light; the x axis denotes the hydrodynamic diameter of the particles present in the solution. One representative experiment of four performed is shown (left). The numeric values obtained for each peptide are also shown (right).
The hydrodynamic diameters of peptides (10 μg/mL in PBS) were measured at 25° C. in a Zetasizer Nano S from Malvern Instruments (Worcestershire, UK) equipped with a 633 nm HeNe laser, as described (Saenz A, et al., 2010, Fluidizing effects of C-reactive protein on lung surfactant membranes: protective role of surfactant protein A, FASEB J 24:3662-73). Four scans were recorded for each sample, and samples were analyzed in triplicate.

[4] = test system: mouse splenocytes exposed to LPS; test: LPS-induced cytokine release by mouse splenocytes; format: cell-based, C57BL/6 mice; conditions: LPS 0.5 μg/mL, 48 h, peptide 0.5, 5 and 20 μg/mL
Method: FIG. 6. Effect of CD6-derived peptides on in vitro LIPS-induced cytokine release by mouse splenocytes. Total spleen cell suspensions (2×10^5) from C57BL/6 mice (n=7) were stimulated in triplicate for 48 h with LPS (0.5 μg/mL), in the presence or absence of increasing concentrations (0.5, 5, and 20 μg/mL) of CD6-derived peptides (PD1, PD2, PD3, and Pcons). Cytokine levels in culture supernatants were determined by ELISA and results expressed in pg/mL as mean±SD of triplicates. Viability was >75% at 48 h in all experimental conditions. Statistical analysis was performed using a 2-tailed Mann-Whitney test, with confidence intervals of 95% (*, P<0.05; **, P<0.01; ***, P<0.001).
Spleens from 6-8 week old C57BL/6 mice (Charles River) were disaggregated by filtering through a cell strainer and, after erythrocyte lysis, cells were resuspended in RPMI 1640 with L-glutamine (Lonza) plus 10% fetal calf serum (BioWest), 100 U/mL penicillin, 100 μg/mL streptomycin and 50 μM 2-(3 Mercaptoethanol (Merck). Cells (2×10^5) were stimulated for 48 h (at 37° C. in a humidified atmosphere with 5% CO2) in U-bottomed 96-well plates (Biofil) containing LPS (0.5 μg/mL; E. coli O111:B4), in the presence or absence of increasing peptides (0.5-20 μg/mL). Culture supernatants were harvested and mouse cytokines measured by ELISA following manufacturer's instructions (BD Biosciences OptEIA sets).

[5] = test system: mice undergoing CLP-induced septic shock; test: Mouse survival following CLP-induced septic shock; format: in vivo, C57BL/6J mice; conditions: single 6 mg/kg i.v. at +1 h post CLP; FIG. 7
Method: FIG. 7. Comparative therapeutic effects of i.v. infused CD6-derived peptides on mouse survival following Cecal Ligation and Puncture (CLP)-induced sepsis. (A, B) C57BL/6J mice were i.v. infused with saline (n=25) or single 6 mg/kg doses of unlabeled CD6- (PD1, n=8; PD2, n=16; PD3, n=15; Pcons, n=12) or DMBT1 (pbs1, n=13) derived peptides at +1 h post CLP induction. A sham group (n=3) was included. In all cases average percent survival was analyzed over time for each group and compared with the saline-treated group using the long-rank t-test (*, P<0.05; **, P<0.01; ***, P<0.001).
FIG. 8. Dose-, time- and via-dependent effects of CD6.PD3 infusion on mouse survival following CLP-induced sepsis. (A) C57BL/6 mice were i.v. infused at +1 h post CLP with saline (n=26) or single increasing doses (3 mg/kg, n=13; 6 mg/kg, n=15; and 12 mg/kg, n=8) of CD6.PD3 peptide. (B) C57BL/6 mice were i.v. infused with saline (n=4) or 6 mg/kg CD6.PD3 at different times post CLP (+1 h, n=5; +3 h, n=5; +6 h, n=6). (C) C57BL/6J mice were i.v. (n=11) or i.p. (n=9) infused with 6 mg/kg CD6.PD3 peptide or saline (n=9) at +1 h post CLP. In all cases, average percent of survival was analyzed over time and compared with the saline-treated group using a log-rank t-test (n.s., not significant; *, P<0.05. **, P<0.01; ***, P<0.001).
FIG. 10. Additive effects of combined administration of CD6.PD3 plus Imipenem/Cilastatin on mouse survival following CLP-induced sepsis. C57BL/6J mice were therapeutically infused at +1 h post CLP with saline (n=36), CD6.PD3 (6 mg/kg i.v.; n=25), Imipenem/Cilastatin (I/C, 50 mg/kg/12 h i.p.; n=9) or a combination of the two later (I/C+PD3, n=11). In all cases average percent survival was analyzed over time for each group and compared to the I/C plus CD6.PD3 group using the long-rank t-test (**, P<0.02; ***, P<0.002).
Animal procedures were approved by the Animal Experimentation Ethical Committee, University of Barcelona. High-grade mortality (≥90% mortality within the first 48-72 h) CLP-induced septic shock was induced in 8-10 week old C57BL/6J male mice (20-25 g; Charles River) as previously reported (Martinez-Florensa M, et al., 2017, Protective Effects of Human and Mouse Soluble Scavenger-Like CD6 Lymphocyte Receptor in a Lethal Model of Polymicrobial Sepsis, Antimicrob Agents Chemother 61:e01391-16).
Survival assays were analyzed by a Log-Rank χ^2 test using GraphPad Prism software. The significance of differences between experimental groups was determined by 2-tailed paired T test with 95% of confidence intervals (CI). P values were considered significant when P<0.05. Statistical analysis (mean±SEM) was performed using a 2-tailed Mann-Whitney test, with 95% of Cl.

[6] = depending on the G− strain used; read-out: Kd of the LPS/Polymixin B interaction; cited from earlier work
[7] = Endotoxin adsorption on peptide/protein-coated Eupergit beads (LAL assay); conditions: 50 UI/mL LPS, 0-150 min, vs HSA- and rshCD5-coated controls
Method: FIG. 11. Endotoxin adsorption assays on immobilized CD6-derived peptides and proteins. Eupergit® beads coated with different CD6-derived peptides (PD2, PD3, and Pcons) (A) or proteins (rshCD5 and rshCD6) (B) were incubated for different periods of time (0, 30, 90 and 150 min) with a 50 UI/mL endotoxin solution. Limulus amoebocyte lysate activating activity (LAL activity) of supernatants was then monitored along time and the OD 405-620 nm represented. Beads coated with Human Serum Albumin (HSA) were used as negative controls. Shown are triplicates of a representative experiment from two independent performed. Statistical analysis was done by using the 2-tailed paired T test with 95% confidence interval (***, P<0.001).
Proteins or peptides (2.5 mg each) were immobilized via NH2 groups on macroporous acrylic EUPERGIT© beads (0.2 g; Röhm-Pharma GmbH, Germany) following a previously described protocol (Zimmermann M, et al., 1999, Endotoxin adsorbent based on immobilized human serum albumin. Clin Chem Lab Med 37:373-379). Peptide or protein-coated Eupergit® beads are obtained by incubation with stirring of the polymeric beads at room temperature with a solution of the peptides of the invention in sodium phosphate buffer 100 mM pH 8 for 24 hours. After incubation, the beads were washed 3 times with 3 M sodium chloride pH 7.0, 30 mM sodium phosphate buffer pH 4.0 and 30 mM sodium phosphate buffer pH 8.0. Finally, 154 mM sodium chloride solution pH 7.0 was added to the peptide or protein-coated beads.
LPS detection was performed by using the turbidimetric-kinetic Limulus Amebocyte Lysate (LAL) kit-QCL (50-650U, Lonza) following manufacturer's instructions. Protein/peptide-coated EUPERGIT® beads were incubated 1:1 (v:v) with the provided endotoxin solution (50 UI/mL) for different periods of time (0-150 min) at room temperature following manufacturer's instructions.

[8] = cited from earlier work
[9] = test system: pro-inflammatory cytokine (IL-1β, IL-6, TNF-α) release; conditions: cited from earlier work
[10] = test system: mouse models of septic shock; conditions: cited from earlier work

| Molecule | binding to immobilized LPS (ELISA) [1] | binding to immobilized LTA (ELISA) [2] | hydrodynamic size, first (or single) peak [3] [nm] | hydrodynamic size, second peak [3] [nm] | survival [5] [%] | other results |
| --- | --- | --- | --- | --- | --- | --- |
| GRVEVLFRGSW (CD6 Pcon) [CD6.cons, reference compound] | dose-dependent binding | dose-dependent binding | 1636±6 | 5493±7 | 25 | IL-1β release [4]: dose-dependent inhibitory effects; IL-6 release [4]: dose-dependent inhibitory effects; IL-10 release [4]: not |
| GRVEVLYRGSW (DMBT-1.pbs1) [DMBT1.pbs1, reference compound] | dose-dependent binding | dose-dependent binding | 169±5 | 617±4 | 23.07 | – |
| GQLEVYLKDGW (CD5.PD1) | no significant binding | no significant binding | – | – | – | – |
| Polymixin B | – | – | – | – | – | Kd [6]: 100 to 900 nM |
| B1 | – | – | – | – | – | endotoxin levels (LAL assay) [7]: reduced endotoxin levels; Kd affinities for bacterial PAMPs (LPS, LTA or PGN) [8]: in the nM range; pro-inflammatory cytokine (IL-1β, IL-6, TNF-α) release triggered by LPS or LTA/PGN [9]: down-modulates; lethal effects caused by LPS-induced septic shock ([10]; i.p. administration, mice (EP 2143436)): counteracts the lethal effects; serum levels of pro-inflammatory cytokines (IL-1β, IL-6 and TNF-α) ([10]; prophylactic infusion): significantly reduces; mortality ([10]; prophylactic infusion, endotoxin, whole bacteria and peritonitis models): significantly reduces mortality |
